# Assay results reported in US10874631B2, “Altertoxin II as a selective inhibitor of Ewing family of tumor cells” (priority 2016, dated 2020).
# Tested on: Ewing sarcoma cells
# Assay: Panel of 5 pediatric cancer cell lines, selective cytotoxicity
# Assay type: cell-based
# Settings: 5 types of solid pediatric cancers
smiles,measurement,value
"O=C1C[C@H](O)[C@@H]2c3c(ccc(O)c31)-c1ccc(O)c3c1[C@@]2(O)CCC3=O [Altertoxin I, altertoxin I]",selective cytotoxic activity against Ewing sarcoma cells,did not show selective cytotoxic activity
